Values after ≈ are worked out from the molar mass of the structure shown. Counter-ions that a name gives are not always drawn.
Columns and labels:
[1] = test system: Citrobacter freundii 1982; experiment: Antibacterial activity in vitro (MIC) against Citrobacter freundii 1982; assay type: cell-based; details: read-out: MIC C. freundii 1982
Method: (§1) The minimum inhibitory concentration in vitro (MIC in μg/ml) of a compound of formula I against Citrobacter freundii 1982 and Staphylococcus aureus 887 is measured and compiled in Table 2.

[2] = test system: Staphylococcus aureus 887; experiment: Antibacterial activity in vitro (MIC) against Staphylococcus aureus 887; assay type: cell-based; details: read-out: MIC S. aureus 887
Method: as §1

SMILES | MIC [1] [µg/mL] | MIC [2] [µg/mL]
O=C(O)C1=C(/C=C2\CCN(Cc3cccs3)C2=O)C[C@@H]2CN(C(=O)C(F)(F)F)[C@@H]3C(=O)N1[C@H]23 [Example 35, (E)-(1aS,3aR,6bR)-1-Oxo-5-[2-oxo-1-(thiophen-2-yl-methyl)-pyrrolidin-3-ylidenemethyl]-2-trifluoroacetyl-1a,2,3,3a,4,6b-hexahydro-1H-2,6a-diaza-cyclobut[cd]indene-6-carboxylic acid sodium salt (1:1)] | 32 | 4
O=C(O)C1=C(/C=C2\CCN(C3CC3)C2=O)C[C@@H]2CN(C(=O)C(F)(F)F)[C@@H]3C(=O)N1[C@H]23 [Example 36, (E)-(1aS,3aR,6bR)-1-Oxo-5-[2-oxo-1-cyclopropyl-pyrrolidin-3-ylidenemethyl]-2-trifluoroacetyl-1a,2,3,3a,4,6b-hexahydro-1H-2,6a-diaza-cyclobut[cd]indene-6-carboxylic acid sodium salt (1:1)] | 8 | 4
O=C(O)C1=C(/C=C2\CCN(c3ccccc3)C2=O)C[C@@H]2CN(C(=O)C(F)(F)F)[C@@H]3C(=O)N1[C@H]23 [Example 37, (E)-(1aS,3aR,6bR)-1-Oxo-5-[2-oxo-1-phenyl-pyrrolidin-3-ylidenemethyl]-2-trifluoroacetyl-1a,2,3,3a,4,6b-hexahydro-1H-2,6a-diaza-cyclobut[cd]indene-6-carboxylic acid sodium salt (1:1)] | 64 | 4
O=C(O)C1=C(/C=C2\CCN(c3cccnc3)C2=O)C[C@@H]2CN(C(=O)C(F)(F)F)[C@@H]3C(=O)N1[C@H]23 [Example 38, (E)-(1aS,3aR,6bR)-1-Oxo-5-[2-oxo-1-pyridin-3-yl-pyrrolidin-3-ylidenemethyl]-2-trifluoroacetyl-1a,2,3,3a,4,6b-hexahydro-1H-2,6a-diaza-cyclobut[cd]indene-6-carboxylic acid sodium salt (1:1)] | 16 | 4
CC(=O)N1C[C@H]2CC(/C=C3\CCN(c4ccc[n+](Cc5ccccc5)c4)C3=O)=C(C(=O)[O-])N3C(=O)[C@@H]1[C@@H]23 [Example 39, (E)-(1aS,3aR,6bR)-2-Acetyl-5-[1-(1-benzyl-pyridin-1-ium-3-yl)-2-oxo-pyrrolidin-3-ylidenemethyl]-1-oxo-1a,2,3,3a,4,6b-hexahydro-1H-2,6a-diaza-cyclobut[cd]indene-6-carboxylate acid] | 4 (≈ 8.02 µM) | 2 (≈ 4.01 µM)
CC(=O)N1C[C@H]2CC(/C=C3\CCN(c4ccc[n+](CC(N)=O)c4)C3=O)=C(C(=O)[O-])N3C(=O)[C@@H]1[C@@H]23 [Example 40, (E)-(1aS,3aR,6bR)-2-Acetyl-5-[1-(1-carbamoylmethyl-pyridin-1-ium-3-yl)-2-oxo-pyrrolidin-3-ylidenemethyl]-1-oxo-1a,2,3,3a,4,6b-hexahydro-1H-2,6a-diaza-cyclobut[cd]indene-6-carboxylate] | 4 (≈ 8.59 µM) | 2 (≈ 4.3 µM)
O=C(O)C1=C(/C=C/c2ccccc2)C[C@@H]2CN[C@@H]3C(=O)N1[C@H]23 [Example 49, (E)-(1aS,3aR,6bR)-1-Oxo-5-styryl-1a,2,3,3a,4,6b-hexahydro-1H-2,6a-diaza-cyclobut[cd]indene-6-carboxylic acid trifluoroacetate] | 64 | 8
O=C(O)C1=C(/C=C/c2ccccn2)C[C@@H]2CN[C@@H]3C(=O)N1[C@H]23 [Example 50, (E)-(1aS,3aR,6bR)-1-Oxo-5-(2-pyridin-2-yl-vinyl)-1a,2,3,3a,4,6b-hexahydro-1H-2,6a-diaza-cyclobut[cd]indene-6-carboxylic acid trifluoroacetate (1:1.58)] | 64 | 64
O=C(O)C1=C(/C=C/c2ccncc2)C[C@@H]2CN[C@@H]3C(=O)N1[C@H]23 [Example 51, (E)-(1aS,3aR,6bR)-1-Oxo-5-(2-pyridin-4-yl-vinyl)-1a,2,3,3a,4,6b-hexahydro-1H-2,6a-diaza-cyclobut[cd]indene-6-carboxylic acid trifluoroacetate (1:1.45)] | 64 | 4
O=C(O)C1=C(/C=C/c2ccc(O)cc2)C[C@@H]2CN[C@@H]3C(=O)N1[C@H]23 [Example 52, (E)-(1aS,3aR,6bR)-1-Oxo-5-[2-(4-hydroxy-phenyl)-vinyl]-1a,2,3,3a,4,6b-hexahydro-1H-2,6a-diaza-cyclobut[cd]indene-6-carboxylic acid trifluoroacetate (1:0.83)] | 64 | 4
O=C(O)C1=C(/C=C/c2cccnc2)C[C@@H]2CN[C@@H]3C(=O)N1[C@H]23 [Example 53, (E)-(1aS,3aR,6bR)-1-Oxo-5-(2-pyridin-3-yl-vinyl)-1a,2,3,3a,4,6b-hexahydro-1H-2,6a-diaza-cyclobut[cd]indene-6-carboxylic acid trifluoroacetate (1:1.5)] | 64 | 2
O=C(O)C1=C(/C=C/c2ccc3ccccc3n2)C[C@@H]2CN[C@@H]3C(=O)N1[C@H]23 [Example 54, (E)-(1aS,3aR,6bR)-1-Oxo-5-(2-quinolin-2-yl-vinyl)-1a,2,3,3a,4,6b-hexahydro-1H-2,6a-diaza-cyclobut[cd]indene-6-carboxylic acid trifluoroacetate (1:1.5)] | 64 | 64
O=C(O)C1=C(/C=C/c2cnc3ccccc3c2)C[C@@H]2CN[C@@H]3C(=O)N1[C@H]23 [Example 55, (E)-(1aS,3aR,6bR)-1-Oxo-5-(2-quinolin-3-yl-vinyl)-1a,2,3,3a,4,6b-hexahydro-1H-2,6a-diaza-cyclobut[cd]indene-6-carboxylic acid trifluoroacetate (1:1.4)] | 64 | 4
O=CN1C[C@H]2CC(/C=C/c3ccccn3)=C(C(=O)O)N3C(=O)[C@@H]1[C@@H]23 [Example 56, (E)-(1aS,3aR,6bR)-2-Formyl-1-oxo-5-(2-pyridin-2-yl-vinyl)-1a,2,3,3a,4,6b-hexahydro-1H-2,6a-diaza-cyclobut[cd]indene-6-carboxylic acid sodium salt (1:1)] | 4 | 1
CC(=O)N1C[C@H]2CC(/C=C/c3ccccc3)=C(C(=O)O)N3C(=O)[C@@H]1[C@@H]23 [Example 57, (E)-(1aS,3aR,6bR)-2-Acetyl-1-oxo-5-styryl-1a,2,3,3a,4,6b-hexahydro-1H-2,6a-diaza-cyclobut[cd]indene-6-carboxylic acid sodium salt (1:1)] | 64 | 4
CC(=O)N1C[C@H]2CC(/C=C/c3ccccn3)=C(C(=O)O)N3C(=O)[C@@H]1[C@@H]23 [Example 58, (E)-(1aS,3aR,6bR)-2-Acetyl-1-oxo-5-(2-pyridin-2-yl-vinyl)-1a,2,3,3a,4,6b-hexahydro-1H-2,6a-diaza-cyclobut[cd]indene-6-carboxylic acid sodium salt (1:1)] | 4 | 2
CC(=O)N1C[C@H]2CC(/C=C/c3ccncc3)=C(C(=O)O)N3C(=O)[C@@H]1[C@@H]23 [Example 59, (E)-(1aS,3aR,6bR)-2-Acetyl-1-oxo-5-(2-pyridin-4-yl-vinyl)-1a,2,3,3a,4,6b-hexahydro-1H-2,6a-diaza-cyclobut[cd]indene-6-carboxylic acid sodium salt (1:1)] | 32 | 1
CC(=O)N1C[C@H]2CC(/C=C/c3ccc(O)cc3)=C(C(=O)O)N3C(=O)[C@@H]1[C@@H]23 [Example 60, (E)-(1aS,3aR,6bR)-2-Acetyl-1-oxo-5-[2-(4-hydroxy-phenyl)-vinyl]-1a,2,3,3a,4,6b-hexahydro-1H-2,6a-diaza-cyclobut[cd]indene-6-carboxylic acid sodium salt (1:1)] | 32 | 2
CC(=O)N1C[C@H]2CC(/C=C/c3ccc4ccccc4n3)=C(C(=O)O)N3C(=O)[C@@H]1[C@@H]23 [Example 61, (E)-(1aS,3aR,6bR)-2-Acetyl-1-oxo-5-(2-quinolin-2-yl-vinyl)-1a,2,3,3a,4,6b-hexahydro-1H-2,6a-diaza-cyclobut[cd]indene-6-carboxylic acid sodium salt (1:1)] | 64 | 64
CC(=O)N1C[C@H]2CC(/C=C/c3cccnc3)=C(C(=O)O)N3C(=O)[C@@H]1[C@@H]23 [Example 62, (E)-(1aS,3aR,6bR)-2-Acetyl-1-oxo-5-(2-pyridin-3-yl-vinyl)-1a,2,3,3a,4,6b-hexahydro-1H-2,6a-diaza-cyclobut[cd]indene-6-carboxylic acid sodium salt (1:1)] | 8 | 2
CC(=O)N1C[C@H]2CC(/C=C/c3cnc4ccccc4c3)=C(C(=O)O)N3C(=O)[C@@H]1[C@@H]23 [Example 63, (E)-(1aS,3aR,6bR)-2-Acetyl-1-oxo-5-(2-quinolin-3-yl-vinyl)-1a,2,3,3a,4,6b-hexahydro-1H-2,6a-diaza-cyclobut[cd]indene-6-carboxylic acid sodium salt (1:1)] | 64 | 0.5
O=C(O)C1=C(/C=C/c2ccccn2)C[C@@H]2CN(C(=O)C(F)(F)F)[C@@H]3C(=O)N1[C@H]23 [Example 64, (E)-(1aS,3aR,6bR)-1-Oxo-5-(2-pyridin-2-yl-vinyl)-2-trifluoroacetyl-1a,2,3,3a,4,6b-hexahydro-1H-2,6a-diaza-cyclobut[cd]indene-6-carboxylic acid sodium salt (1:1)] | 32 | 2
CC(=O)N1C[C@H]2CC(/C=C/c3ccc[n+](Cc4ccccc4)c3)=C(C(=O)[O-])N3C(=O)[C@@H]1[C@@H]23 [Example 66, (E)-(1aS,3aR,6bR)-2-Acetyl-5-[2-(1-benzyl-pyridin-1-ium-3-yl)-vinyl]-1-oxo-1a,2,3,3a,4,6b-hexahydro-1H-2,6a-diaza-cyclobut[cd]indene-6-carboxylate] | 8 (≈ 18.6 µM) | 0.25 (≈ 0.582 µM)
CC(=O)N1C[C@H]2CC(/C=C/c3ccc[n+](CC(N)=O)c3)=C(C(=O)[O-])N3C(=O)[C@@H]1[C@@H]23 [Example 67, (E)-(1aS,3aR,6bR)-2-Acetyl-5-[2-(1-carbamoylmethyl-pyridin-1-ium-3-yl)-vinyl]-1-oxo-1a,2,3,3a,4,6b-hexahydro-1H-2,6a-diaza-cyclobut[cd]indene-6-carboxylate] | 16 (≈ 40.4 µM) | 0.25 (≈ 0.631 µM)

— patent publication US6218379A, “Tricyclic carbacephems” (Hoffmann-la Roche Inc., priority 1996, dated 2001)
